Measured values taken from patent US10106515B2, “1-(cyclopent-2-en-1-yl)-3-(2-hydroxy-3-(arylsulfonyl)phenyl)urea derivatives as CXCR2 inhibitors” (GLAXOSMITHKLINE INTELLECTUAL PROPERTY DEVELOPMENT LIMITED, priority 2014, dated 2018).
Counter-ions that a name gives are not always drawn.

molecular target: T1, recombinant human CXCR2 (Homo sapiens, UniProt P25025); test: CXCR2 Tango assay; format: cell-based; conditions: mean pIC50 of multiple test results; stimulated with 80 nM hCXCL1; reporter gene blue/green emission ratio; read-out: pIC50 (CXCR2 Tango assay) (converted)
T1 construct: TEV protease site; Gal4-VP16 transcription factor
T1 sequence (P25025 1-360): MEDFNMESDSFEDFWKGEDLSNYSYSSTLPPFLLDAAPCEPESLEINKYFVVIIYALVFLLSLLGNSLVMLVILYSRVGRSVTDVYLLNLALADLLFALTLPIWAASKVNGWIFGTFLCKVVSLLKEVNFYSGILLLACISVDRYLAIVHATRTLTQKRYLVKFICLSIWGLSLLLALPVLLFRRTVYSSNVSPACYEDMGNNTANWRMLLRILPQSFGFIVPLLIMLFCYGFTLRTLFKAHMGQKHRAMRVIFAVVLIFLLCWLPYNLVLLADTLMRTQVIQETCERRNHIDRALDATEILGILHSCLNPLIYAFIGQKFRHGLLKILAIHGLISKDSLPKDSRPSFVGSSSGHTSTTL
Text: The assay measures ligand-induced activation of the receptor CXCR2 in a stable cell line containing the recombinant human CXCR2 linked to a TEV protease site and a Gal4-VP16 transcription factor (Invitrogen). Ligand binding to the receptor results in the recruitment of arrestin proteins (tagged with protease) to the receptor and triggers the release of a tethered transcription factor. The transcription factor enters the nucleus and activates the transcription of the reporter gene. The ability of a compound to inhibit CXCR2 activation is indirectly assessed by measuring the reporter gene activity.
A vial of cryopreserved cells was removed from liquid nitrogen and rapidly thawed in a water bath at 37° C. with gentle agitation. The contents of the vial were transferred drop-wise into Thawing Medium in a sterile 15 ml conical tube and then centrifuged at 1000 rpm for 4-5 min. Then the cell pellets were resuspended in Assay Medium at a density of ˜200,000 cells/ml. All test compounds were dissolved in DMSO at a concentration of 10 mM and were prepared in 100% DMSO to provide 10 point dose response curves. A reference CXCR2 antagonist was added to wells in row 2, columns 1-5 & 7-11. Exemplified compounds 1-4, 7, 8-10, 13-22, 24-26, 28-30, 32, 33, 36, 37, 40, 42-44. 95-110, 115-118, 120, 121, 125, 126, 129-134, 137, 138, 140, 142, 147-149, 153-157, 159-162, 163-166, 168, 170, 172, 174-180 and 202 were tested using the CXCR2 antagonist sodium 3-chloro-6-(3-(2,3-dichlorophenyl)ureido)-2-sulfamoylphenolate as reference compound (Reference Compound 1) (published International patent application WO2002/079122). […] Test compounds were added to wells in row 2, columns 13-17 & 19-23 and rows 3-15, columns 1-5 & 7-11/13-17 & 19-23 (columns 6 and 18 as positive controls and un-stimulated controls respectively; columns 12 and 24 as cell-free control). Compounds in solution were added to the assay plate (Greiner 781090) using an Echo (Labcyte) concentration-response program (50 nl/well). The cell-free, un-stimulated and positive controls were loaded with 50 nl/well pure DMSO to ensure that the DMSO concentration was constant across the plate for all assays. Using Multi-drop Combi (Thermo) with standard cassette, 50 μl of Assay Medium was added to each well in the cell-free controls (columns 12 and 24); 50 μl of the cell suspension without hCXCL1 (a CXCR2 ligand) was added to each well in column 18 of the plate (˜10,000 cells per well); and 50 μl of the cell suspension with 80 nM hCXCL1 was added to the rest of wells of the plate (˜10,000 cells per well). The cells were incubated overnight at 37° C./5% CO2. 10 μl of 6× substrate mixture (LiveBLAzer™-FRET B/G substrate (CCF4-AM) Cat # K1096 from Invitrogen, Inc.) was added to each well using Multi-drop Combi (Thermo) with small-tube cassette and the plates incubated at room temperature for 2 h in the dark. The plate was finally read on EnVision using one excitation channel (409 nm) and two emission channels (460 nm and 530 nm).
The blue/green emission ratio (460 nm/530 nm) was calculated for each well, by dividing the background-subtracted Blue emission values by the background-subtracted Green emission values. The dose response curve was based on sigmoidal dose-response model. All ratio data was normalized based upon the maximum emission ratio of positive control (hCXCL1) and minimum emission ratio of negative control (DMSO) on each plate. The intrinsic activity (IA) of each compound would be the normalized percentage of its maximum response after curve fitting.
All exemplified compounds (except for Compounds 203 and 204) were tested in the CXCR2 Tango assay or a similar assay described above. The data mentioned below represents a mean pIC 50 value of multiple test results. It is understood that the data illustrated below may have reasonable variation depending on the specific conditions and procedures used by the person conducting the testing.

Row | IC50 [nM] | SMILES
1 | ≤ 10 | CC1=CCC[C@H]1NC(=O)Nc1ccc(Cl)c(S(=O)(=O)N2CC(F)C2)c1O [Compound 86, (R)-1-(4-chloro-3-((3-fluoroazetidin-1-yl)sulfonyl)-2-hydroxyphenyl)-3-(2-methylcyclopent-2-en-1-yl)urea trifluoroacetic acid salt]
2 | ≤ 10 | CC1=CCC[C@H]1NC(=O)Nc1ccc(Cl)c(S(=O)(=O)N2CC[C@@H](F)C2)c1O [Compound 87, 1-(4-chloro-3-(((R)-3-fluoropyrrolidin-1-yl)sulfonyl)-2-hydroxyphenyl)-3-((R)-2-methylcyclopent-2-en-1-yl)urea, trifluoroacetic acid salt]
3 | ≤ 1 | CC1=CCC[C@H]1NC(=O)Nc1ccc(Cl)c(S(=O)(=O)N2CCC(F)(F)C2)c1O [Compound 88, (R)-1-(4-chloro-3-((3,3-difluoropyrrolidin-1-yl)sulfonyl)-2-hydroxyphenyl)-3-(2-methylcyclopent-2-en-1-yl)urea]
4 | ≤ 1 | CC1=CCC[C@H]1NC(=O)Nc1ccc(Cl)c(S(=O)(=O)N2CCC(O)CC2)c1O [Compound 89, (R)-1-(4-chloro-2-hydroxy-3-((4-hydroxypiperidin-1-yl)sulfonyl)phenyl)-3-(2-methylcyclopent-2-en-1-yl)urea]
5 | ≤ 1 | CC1=CCC[C@H]1NC(=O)Nc1ccc(Cl)c(S(=O)(=O)N2CCCCC2)c1O [Compound 91, (R)-1-(4-chloro-2-hydroxy-3-(piperidin-1-ylsulfonyl)phenyl)-3-(2-methylcyclopent-2-en-1-yl)urea trifluoroacetic acid salt]
6 | ≤ 1 | CC1=CCCC1NC(=O)Nc1ccc(Cl)c(S(=O)(=O)[C@H]2C[C@@H](O)C2)c1O (stereo partly drawn) [Compound 95, 1-(4-chloro-2-hydroxy-3-((cis-3-hydroxycyclobutyl)sulfonyl)phenyl)-3-(2-methylcyclopent-2-en-1-yl)urea]
7 | ≤ 10 | CC1=CCCC1NC(=O)Nc1ccc(Cl)c(S(=O)(=O)[C@H]2C[C@H](N3CCCC3)C2)c1O (stereo partly shown) [Compound 96, 1-(4-chloro-2-hydroxy-3-(((1r,3r)-3-(pyrrolidin-1-yl)cyclobutyl)sul-fonyl)phenyl)-3-(2-methylcyclopent-2-en-1-yl)urea, trifluoroacetic acid salt]
8 | ≤ 10 | CC1=CCCC1NC(=O)Nc1ccc(Cl)c(S(=O)(=O)[C@H]2CC[C@H](N3CCC3)CC2)c1O (stereo partly shown) [Compound 97, 1-(3-(((1r,4r)-4-(azetidin-1-yl)cyclohexyl)sulfonyl)-4-chloro-2-hydroxyphenyl)-3-(2-methylcyclopent-2-en-1-yl)urea trifluoroacetic acid salt]
9 | ≤ 1 | CC1=CCCC1NC(=O)Nc1ccc(Cl)c(S(=O)(=O)[C@H]2CC[C@H](N3CCCC3)CC2)c1O (stereo partly drawn) [Compound 98, 1-(4-chloro-2-hydroxy-3-(((1R,4R)-4-(pyrrolidin-1-yl)cyclohexyl)sulfonyl)phenyl)-3-(2-methylcyclopent-2-en-1-yl)urea, trifluoroacetic acid salt]
10 | ≤ 10 | CC1=CCCC1NC(=O)Nc1ccc(Cl)c(S(=O)(=O)[C@H]2CCOC2)c1O (stereo partly drawn) [Compound 99, 1-(4-chloro-2-hydroxy-3-(((S)-tetrahydrofuran-3-yl)sulfonyl)phenyl)-3-(2-methylcyclopent-2-en-1-yl)urea]
11 | ≤ 10 | CC1=CCCC1NC(=O)Nc1ccc(Cl)c(S(=O)(=O)C(C)(C)C)c1O (stereo not shown) [Compound 100, 1-(3-(tert-butylsulfonyl)-4-chloro-2-hydroxyphenyl)-3-(2-methylcyclopent-2-en-1-yl)urea]
12 | ≤ 1 | CC1=CCCC1NC(=O)Nc1ccc(Cl)c(S(=O)(=O)C(C)(C)C(F)(F)F)c1O (stereo not shown) [Compound 101, 1-(4-chloro-2-hydroxy-3-((1,1,1-trifluoro-2-methylpropan-2-yl)sulfonyl)phenyl)-3-(2-methylcyclopent-2-en-1-yl)urea]
13 | ≤ 10 | CC1=CCCC1NC(=O)Nc1ccc(Cl)c(S(=O)(=O)C(C)(C)c2ccccn2)c1O (stereo not shown) [Compound 102, 1-(4-chloro-2-hydroxy-3-((2-(pyridin-2-yl)propan-2-yl)sulfonyl)phenyl)-3-(2-methylcyclopent-2-en-1-yl)urea, trifluoroacetic acid salt]
14 | ≤ 10 | CC1=CCCC1NC(=O)Nc1ccc(Cl)c(S(=O)(=O)C(C)(C)C2CCOCC2)c1O (stereo not shown) [Compound 103, 1-(4-chloro-2-hydroxy-3-((2-(tetrahydro-2H-pyran-4-yl)propan-2-yl)sulfonyl)phenyl)-3-(2-methylcyclopent-2-en-1-yl)urea]
15 | ≤ 10 | CC1=CCCC1NC(=O)Nc1ccc(Cl)c(S(=O)(=O)C(C)(C)F)c1O (stereo not shown) [Compound 105, 1-(4-chloro-3-((2-fluoropropan-2-yl)sulfonyl)-2-hydroxyphenyl)-3-(2-methylcyclopent-2-en-1-yl)urea]
16 | ≤ 1 | CC1=CCCC1NC(=O)Nc1ccc(Cl)c(S(=O)(=O)C(C)(F)F)c1O (stereo not shown) [Compound 106, 1-(4-chloro-3-((1,1-difluoroethyl)sulfonyl)-2-hydroxyphenyl)-3-(2-methylcyclopent-2-en-1-yl)urea]
17 | ≤ 10 | CC1=CCCC1NC(=O)Nc1ccc(Cl)c(S(=O)(=O)C2CCc3nccn3C2)c1O (stereo not shown) [Compound 108, 1-(4-chloro-2-hydroxy-3-((5,6,7,8-etrahydroimidazo [1,2-a]pyridin-6-yl)sulfonyl)phenyl)-3-(2-methylcyclopent-2-en-1-yl)urea, trifluoroacetic acid salt]
18 | ≤ 10 | CC1=CCCC1NC(=O)Nc1ccc(Cl)c(S(=O)(=O)C2CCN3CCCC3C2)c1O (stereo not shown) [Compound 109, 1-(4-chloro-2-hydroxy-3-((octahydroindolizin-7-yl)sulfonyl)phenyl)-3-(2-methylcyclopent-2-en-1-yl)urea, trifluoroacetic acid salt]
19 | ≤ 10 | CC1=CCCC1NC(=O)Nc1ccc(Cl)c(S(=O)(=O)N2CC(F)(F)C2)c1O (stereo not shown) [Compound 111, 1-(4-chloro-3-((3,3-difluoroazetidin-1-yl)sulfonyl)-2-hydroxyphenyl)-3-(2-methylcyclopent-2-en-1-yl)urea]
20 | ≤ 10 | CC1=CCCC1NC(=O)Nc1ccc(Cl)c(S(=O)(=O)N2CC[C@@H](F)C2)c1O (stereo partly drawn) [Compound 113, 1-(4-chloro-3-(((R)-3-fluoropyrrolidin-1-yl)sulfonyl)-2-hydroxyphenyl)-3-(2-methylcyclopent-2-en-1-yl)urea]
21 | ≤ 10 | CC1=CCCC1NC(=O)Nc1ccc(Cl)c(S(=O)(=O)N2CCC(F)(F)CC2)c1O (stereo not shown) [Compound 115, 1-(4-chloro-3-((4,4-difluoropiperidin-1-yl)sulfonyl)-2-hydroxyphenyl)-3-(2-methylcyclopent-2-en-1-yl)urea]

same assay, conditions: pIC50 (CXCR2 Tango assay), mean pIC50 of multiple test results; stimulated with 80 nM hCXCL1; reporter gene blue/green emission ratio

Row | SMILES | IC50 [nM]
22 | CC1=CCC[C@H]1NC(=O)Nc1ccc(Cl)c(S(=O)(=O)C2CCN(C3CCC3)CC2)c1O [Compound 83, (R)-1-(4-chloro-3-((1-cyclobutylpiperidin-4-yl)sulfonyl)-2-hydroxyphenyl)-3-(2-methylcyclopent-2-en-1-yl)urea trifluoroacetic acid salt] | ≤ 1
